Patent US20220249343A1, “COSMETIC COMPOSITION INCLUDING 5-BENZYLAMINOSALICYLIC ACID DERIVATIVE, AND TOPICAL USE THEREOF” (GNT PHARMA CO., LTD., priority 2019, published 2022)

Tested on: human skin
Experiment: Safety assessment for human skin: patch test
Type: in vivo
Settings: human volunteers
Protocol: Safety of Compound 2 was assessed by a patch test of 33 human volunteers. At this time, a patch treated with a composition containing 0.0544 mg/ml of compound 2 was attached to the test site, after 24 hours, the patch was removed and the location was marked. After 1 hour, a degree of reactivity was determined and recorded.
The skin reactivity was calculated by multiplying the average of evaluated values for 33 subjects by 25, while the skin irritation index was determined by dividing the above calculated value by the number of evaluations.
The degree of skin irritation of the test substance was determined with reference to the skin irritation index table (Table 1).

## O=C(O)c1cc(NCCc2ccc(C(F)(F)F)cc2)ccc1O [Compound 2]
  adverse skin reactions during the period of use: no reports of specific adverse skin reactions
  findings on physical examination by a dermatologist: no abnormal findings were observed
